Experiments:
[1] = tested on: Maus; assay: Acute toxicity, oral, 7 days observation (Litchfield and Wilcoxon); assay type: in vivo; conditions: for Zustand nach 24 h: mouse, oral, condition of animals 24 h after dosing; for Toxizität / Zustand der überlebenden Tiere: statement in words; for Zustand der überlebenden Tiere: findings above the dose without findings
Text: (§1) Für diesen Versuch wurden je 10 männliche und weibliche Mäuse verwendet. Die Testsubstanzen wurden als Suspension in wässriger Carboxymethylcellulose per Magensonde verabreicht. Die Beobachtungszeit betrug 7 Tage. Die Ergebnisse wurden nach der Methode von G.T. Litchfield und F.G. Wilcoxon (J. Pharmacol. Exp. Ther. 96, 1949, 99) errechnet. Die Ergebnisse sind in der nachfolgenden Tabelle zusammengestellt.

[2] = as above; assay type: in vivo, Maus; conditions: in vivo; mouse, oral, 7 days observation; * = highest technically applicable dose; read-out: Akute Toxi-zität LD50 mg/kg KG. Maus oral
Text: as §1

[3] = tested on: Maus; assay: Prolongation of hexobarbital sleeping time (barbiturate narcosis, method of Fujimoto et al.); assay type: in vivo; conditions: for Verlängerung der Schlaf-zeit in % bei der Maus nach peroraler Gabe von 1mg/kg KG.: mouse, 1 mg/kg p.o., 30 min before 80 mg/kg hexobarbital i.v., versus control group; for schlafverlängernde Wirkung: statement in words
Procedure: (1) Verlängerung der Schlafzeit
Die Wirkung auf die Barbiturat-Narkose wurde in der Versuchsanordnung von J.M. Fujimoto et al. (J. Pharmacol. Exp. Ther. 129, 1960, 139) nachgewiesen. Gruppen von jeweils 10 männlichen Mäusen wurden die Testsubstanzen als Suspension in wässriger Carboxymethylcellulose mittels einer Stahlsonde auf oralem Weg direkt in den Magen verabreicht. 30 Minuten später wurde den Tieren 80 mg/kg Hexobarbital in eine Schwanzvene injiziert. Es wurde die Dauer des Schlafs gemessen und aus den Schlafzeiten der einzelnen Tiere der Kontroll-und Dosisgruppen die jeweiligen Mittelwerte berechnet. Die Verlängerung der Schlafzeit wurde in Prozent gegenüber der Kontrollgruppe berechnet.

[4] = Sleep induction (onset), no method described; assay type: in vivo; conditions: statement in words
[5] = tested on: Maus; assay: Fighting test: inhibition of current-induced fighting (method of Tedeschi et al.); assay type: in vivo; conditions: statement in words; for tranquillisierende Wirkung im Kampftest: DP 327 compared with Flunitrazepam
Text: Die Hemmwirkung gegenüber strominduzierter Kampfhandlungen bei Mäusen wurde in der Versuchsanordnung von R. Tedeschi et al. (J. Pharmacol. Exp. Ther. 125, 1959, 28) ermittelt. 10 Paare weiblicher Mäuse werden am Vortag des Versuches 3 Minuten elektrischen Stromstößen von 3,5 mA, 5 Hz und 5 msec ausgesetzt. Am Versuchstag werden die Testsubstanzen als Suspension in wässriger Carboxymethylcellulose mittels Magensonde peroral verabreicht. 30 Minuten nach der Verabreichung werden jeweils ein Paar in einem Testkäfig wieder den Stromstößen ausgesetzt und die innerhalb von 3 Minuten ausgelösten Kampfhandlungen gezählt. Die Zahl der Kampfhandlungen der jeweiligen Dosisgruppen werden addiert und in Prozent gegenüber der Kontrollgruppe berechnet. Der ED50-Wert wurde mittels halblogarithmischer Regression aus den Dosis-Wirkungsbeziehungen bestimmt.

[6] = DP 327 compared with Flunitrazepam, Beispiel 12 of DE-OS 14 45 873 compared with DP 327

Row | SMILES | Zustand nach 24 h [1] | Toxizität [1] | LD50 at 168 h [2] [mg/kg] | Verlängerung der Schlaf-zeit in % bei der Maus nach peroraler Gabe von 1mg/kg KG. [3] [%] | schlafverlängernde Wirkung [3, 6] | Schlafinduktion [4] | Toxizität ([1]; compared with Lormetazepam) | Zustand der überlebenden Tiere [1] | Todesfälle ([1]; up to the highest applicable dose of 8687 mg/kg) | tranquillisierende Wirkung ([5]; compared with Lormetazepam) | tranquillisierende Wirkung im Kampftest [5] | schlafverlängernde Wirkung ([3]; compared with Lormetazepam)
1 | CN1C(=O)C(O)N=C(c2ccccc2)c2cc([N+](=O)[O-])ccc21 (centres unmarked) [DE-OS 14 45 873 Beispiel 12, reference compound] | bis 3200 mg/kg ohne Befund; ab 3200 mg/kg starke Sedierung, Koma. | toxischer als DP 327 | 4700 | 99 | geringerer schlafverlängernder Wirkung | – | – | – | – | – | – | –
2 | CN1C(=O)C(O)N=C(c2ccccc2Cl)c2cc(Cl)ccc21 (centres unmarked) [Lormetazepam, 7-Chlor-5-(2-chlorphenyl)-1,3-dihydro-3-hydroxy-1-methyl-2H-1,4-benzodiazepin-2-on, reference compound] | 900-1240 mg/kg leichte Sedierung; ab 1700 mg/kg zunehmend starke Sedierung. | – | 6300 | 78 | – | fehlt | – | – | – | – | – | –
3 | CN1C(=O)C(O)N=C(c2ccccc2F)c2cc([N+](=O)[O-])ccc21 (centres unmarked) [DP 327, 5-(2-Fluorphenyl)-1,3-dihydro-3-hydroxy-1-methyl-7-nitro-2H-1,4-benzodiazepin-2-on] | bis 3600 mg/kg ohne Befund; 4824-8687 mg/kg leichte Sedierung. | sehr wenig toxisch | > 8690 | 156 | gleichwertig | rasche Schlafinduktion | deutlich überlegen | nur eine leichte Sedierung und Stereotypie | nur vereinzelt Todesfälle | deutlich überlegen | etwa doppelt so starke tranquillisierende Wirkung | deutlich überlegen
4 | CN1C(=O)CN=C(c2ccccc2F)c2cc([N+](=O)[O-])ccc21 [Flunitrazepam, 5-(2-Fluorphenyl)-1,3-dihydro-1-methyl-7-nitro-2H-1,4-benzodiazepin-2-on, reference compound] | bis 1100 mg/kg ohne Befund; ab 1100 mg/kg starke Sedierung, Koma, Stereotypie. | – | 2700 | 179 | – | langsam einsetzt | – | von starker Sedierung und Stereotypie bis zum Koma | – | – | – | –
5 | O=C1Nc2ccc([N+](=O)[O-])cc2C(c2ccccc2F)=NC1O (centres unmarked) [DP 370, 5-(2-Fluorphenyl)-1,3-dihydro-3-hydroxy-7-nitro-2H-1,4-benzodiazepin-2-on] | bis 4640 mg/kg ohne Befund; ab 4640 mg/kg leichte Sedierung Sedierung, und Ataxie. | wesentlich geringeren Toxizität als die genannten Vergleichssubstanzen | > 10000 | 118 | gute schlafverlängerde Wirkung | – | – | – | – | – | gute tranquillisierende | –

From patent EP0158267A2, “Pharmaceutical composition containing 5-(2-fluorophenyl)-1,3-dihydro-3-hydroxy-7-nitro- or 5-(2-fluorophenyl)-1,3-dihydro-3-hydroxy-1-methyl-7-nitro-2H-1,4-benzodiazepin-2-one and process for their preparation” (Dolorgiet Beteiligungs-GmbH, priority 1984, dated 1985)
